Assay results reported in article PMC6321019 (International Journal of Molecular Sciences, 2018).
Structures can show the parent of a compound that is named as a salt.

What was measured:
[1] = molecular target: T1, hemagglutinin (HA)-tagged wild-type human histamine H1 receptor (HA-WT) (Homo sapiens, UniProt P35367); test: [3H]mepyramine displacement binding to membranes of CHO cells expressing HA-WT; conditions: van 't Hoff plots (37, 25, 14 °C); ∆Hº vs -T∆Sº
T1 construct: membrane preparations

[2] = molecular target: T2, HA-tagged Lys191 mutant of human histamine H1 receptor to alanine (HA-K191A) (Homo sapiens, UniProt P35367, K191A); test: [3H]mepyramine displacement binding to membranes of CHO cells expressing HA-K191A; conditions: HA-K191A vs HA-WT; for reduction of affinity by mutation of Lys191 to alanine (times): 25 °C; for Change in Entropy-Dependent Hydrophobic Binding Forces by the mutation of Lys191 to alanine: -T∆Sº from van 't Hoff plots (37, 25, 14 °C); for Change in Enthalpy-Dependent Electrostatic Binding Forces by the mutation of Lys191 to alanine: ∆Hº from van 't Hoff plots (37, 25, 14 °C)
T2 construct: expressed in transfected cells; host or cells: CHO cells; membrane preparations
T2 sequence (P35367 whole entry K191A): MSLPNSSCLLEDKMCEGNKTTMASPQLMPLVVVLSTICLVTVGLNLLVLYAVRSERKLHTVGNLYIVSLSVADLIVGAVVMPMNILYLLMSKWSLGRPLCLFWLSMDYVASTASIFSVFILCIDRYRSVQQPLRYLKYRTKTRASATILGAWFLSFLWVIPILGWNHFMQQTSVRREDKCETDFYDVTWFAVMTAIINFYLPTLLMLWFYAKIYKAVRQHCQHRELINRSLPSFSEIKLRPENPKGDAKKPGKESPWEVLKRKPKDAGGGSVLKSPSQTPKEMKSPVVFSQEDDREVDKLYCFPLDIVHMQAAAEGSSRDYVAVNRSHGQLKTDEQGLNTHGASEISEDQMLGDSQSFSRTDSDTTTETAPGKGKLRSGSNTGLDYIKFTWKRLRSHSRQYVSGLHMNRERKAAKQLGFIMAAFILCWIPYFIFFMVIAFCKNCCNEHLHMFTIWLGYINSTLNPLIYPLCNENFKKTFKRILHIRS

T1 sequence (P35367 whole entry): as the sequence (P35367 whole entry K191A) above, with A191K counted along it

**Q.** How did the “thermodynamic driving force of binding (source of negative ∆Gº) to HA-WT” value [1] turn out when `O=C(O)COCCN1CCN([C@@H](c2ccccc2)c2ccc(Cl)cc2)CC1` [(S)-cetirizine, (S)-cetirizine dihydrochloride] was run?
**A.** Its value is “predominantly achieved by enthalpy (∆Hº)”.

**Q.** And the “reduction of affinity by mutation of Lys191 to alanine (times)” value [2]?
**A.** Its value is ~6.2 times.

**Q.** And the “Change in Binding Affinity by the mutation of Lys191 to alanine” value [2]?
**A.** The value was “↓**”.

**Q.** And the “Change in Entropy-Dependent Hydrophobic Binding Forces by the mutation of Lys191 to alanine” value [2]?
**A.** Its value is “↑**”.

**Q.** And the “enthalpy-dependent electrostatic binding forces, change by mutation of Lys191 to alanine (in words)” value ([2]; van 't Hoff plots)?
**A.** Its value is “significantly reduced”.

**Q.** What about the “Change in Enthalpy-Dependent Electrostatic Binding Forces by the mutation of Lys191 to alanine” value [2] of the same molecule?
**A.** The value was “↓**”.

**Q.** How did the “thermodynamic driving force of binding (source of negative ∆Gº) to HA-WT” value [1] turn out when `O=C(O)COCCN1CCN([C@H](c2ccccc2)c2ccc(Cl)cc2)CC1` [levocetirizine, Levocetirizine dihydrochloride] was run?
**A.** Its value is “caused by both enthalpy (∆Hº) and entropy (-T∆Sº)”.

**Q.** What about the “reduction of affinity by mutation of Lys191 to alanine (times)” value [2] of the same molecule?
**A.** Its value is “approximately 3.6 times”.

**Q.** What about the “Change in Binding Affinity by the mutation of Lys191 to alanine” value [2] of the same molecule?
**A.** The value was “↓**”.

**Q.** And the “Change in Entropy-Dependent Hydrophobic Binding Forces by the mutation of Lys191 to alanine” value [2]?
**A.** Its value is “↓*”.

**Q.** And the “enthalpy-dependent electrostatic binding forces, change by mutation of Lys191 to alanine (in words)” value ([2]; van 't Hoff plots)?
**A.** Its value is “significantly increased”.

**Q.** What about the “entropy-dependent hydrophobic binding forces, change by mutation of Lys191 to alanine (in words)” value ([2]; van 't Hoff plots) of the same molecule?
**A.** The value was “significantly reduced”.

**Q.** And the “Change in Enthalpy-Dependent Electrostatic Binding Forces by the mutation of Lys191 to alanine” value [2]?
**A.** Its value is “↑*”.
